Values of other authors in patent US8529964B1, “Method and composition for suppression and control of citrus canker and other plant diseases” (priority 2010, dated 2013).

O.O.O=C([O-])c1ccccc1.O=C([O-])c1ccccc1.[Cu+2] [copper benzoate dehydrate]
water solubility (in words): slightly water soluble
